Data as given in patent EP0624573A1, “Iodo vitamin D3 compounds and method for preparing same” (WISCONSIN ALUMNI RESEARCH FOUNDATION, priority 1993, dated 1994).

Assays:
[1] = Intestinal calcium transport in vitamin D-deficient, low calcium diet rats; assay type: in vivo; conditions: for Intestinal Calcium Transport (Serosal/Mucosal Ratio): duodenum on day 7
Protocol: (§1) Rats were fed the vitamin D-deficient, low calcium (0.02%) diet for 3 weeks and then given the indicated dose in 0.1 ml propylene glycol:ethanol (95:5) intraperitoneally each day for 6 days. On day 7, serum was analyzed for calcium and the duodenum used to measure intestinal calcium transport as described by Martin et al. Am. J. Physiol.

[2] = test system: HL-60 cells; experiment: HL-60 differentiation assay, NBT (nitroblue tetrazolium reduction); assay type: cell-based, human; conditions: for percent of HL-60 cells having differentiated to monocytes: NBT assay, concentration of 1 x 10⁻⁷ molar (Fig. 1); for potency in promoting the differentiation of leukemia cells: in words, compared with 1α,25-dihydroxyvitamin D₃ (Fig. 1)
Protocol: This is illustrated by the biological assay results obtained for the claimed 22-iodo-vitamin D₃ compounds, which are summarized in Figs. 1 and 2, and Table 1. […] Differentiation activity was assessed by a standard differentiation assay, abbreviated in Fig. 1 as NBT (nitroblue tetrazolium reduction). The assay was conducted according to known procedures, as given, for example, by DeLuca et al U. S. Patent 4,717,721 and Ostrem et al, J. Biol. Chem. 262, 14164, 1987. For the assay, the differentiation activity of the test compounds is expressed in terms of the percent of HL-60 cells having differentiated to monocytes in response to a given concentration of test compound.

[3] = Bone calcium mobilization (serum calcium) in vitamin D-deficient, low calcium diet rats; assay type: in vivo; conditions: for Bone Calcium Mobilization (Serum Calcium): serum on day 7
Protocol: as §1

[4] = dose 0.1 µg/d/6 days intraperitoneally
[5] = dose 1.0 µg/d/6 days intraperitoneally

C=C1/C(=C\C=C2/CCC[C@]3(C)[C@@H]([C@H](C)CCCC(C)(C)O)CC[C@@H]23)C[C@@H](O)C[C@@H]1O [1,25-(OH)₂D₃, 1α,25-dihydroxyvitamin D₃, reference compound]
Intestinal Calcium Transport (Serosal/Mucosal Ratio) [1, 4]: 11.2 ± 1.2 | percent of HL-60 cells having differentiated to monocytes [2]: ~90% | Bone Calcium Mobilization (Serum Calcium) [3, 4]: 5.9 ± 0.3 mg/100 ml

C=C1/C(=C\C=C2/CCC[C@]3(C)[C@@H]([C@H](C)[C@@H](I)CCC(C)(C)O)CC[C@@H]23)C[C@@H](O)C[C@@H]1O [compound 9, (22S)-iodo-1α,25-dihydroxyvitamin D₃]
biological activity in intestinal calcium transport relative to that of 1,25-(OH)₂D₃ ([1]; Table 1 (1.0 µg/d versus 0.1 µg/d of 1,25-(OH)₂D₃)): about double | Intestinal Calcium Transport (Serosal/Mucosal Ratio) [1, 5]: 22.8 ± 1.4 | percent of HL-60 cells having differentiated to monocytes [2]: the same degree of differentiation | potency in promoting the differentiation of leukemia cells [2]: as potent as 1α,25-dihydroxyvitamin D₃ | Bone Calcium Mobilization (Serum Calcium) [3, 5]: 4.9 ± 0.1 mg/100 ml | bone calcium mobilizing activity ([3]; in words, 1µg per day for six days): little or no bone calcium mobilizing activity

C=C1/C(=C\C=C2/CCC[C@]3(C)[C@@H]([C@H](C)[C@H](I)CCC(C)(C)O)CC[C@@H]23)C[C@@H](O)C[C@@H]1O [compound 11, (22R)-iodo-1α,25-dihydroxyvitamin D₃]
percent of HL-60 cells having differentiated to monocytes [2]: the same degree of differentiation | potency in promoting the differentiation of leukemia cells [2]: as potent as 1α,25-dihydroxyvitamin D₃
